≈ marks a conversion by molar mass, not a printed value. Where “and” joins values, the source holds several entries; their conditions need not be identical. Equal values may be shown once.
Legend:
Assay in all cases: ≥ marks a high value that may be exact or a test limit, other limits are often not marked, values filed in µg/mL are converted to µM
Escherichia coli DL7 = test system: Escherichia coli DL7
Bacillus subtilis PS832 = test system: Bacillus subtilis PS832
[1] = test system: Staphylococcus epidermidis ATCC 12228
[2] = test system: Klebsiella aerogenes ATCC 13048
[3] = test system: Escherichia coli ATCC 25922
[4] = test system: Staphylococcus aureus ATCC 25923
[5] = test system: Pseudomonas aeruginosa ATCC 27853
[6] = test system: Salmonella enterica subsp. enterica serovar Typhimurium ATCC 14028
Escherichia coli ML-35 = test system: Escherichia coli ML-35
[7] = test system: Serratia marcescens ATCC 8100
Escherichia coli D21 = test system: Escherichia coli D21
Bacillus megaterium Bm11 = test system: Bacillus megaterium Bm11
[8] = test system: Staphylococcus aureus ATCC 9144
Escherichia coli HB101 = test system: Escherichia coli HB101
[9] = test system: Corynebacterium glutamicum ATCC 13032

SMILES	MIC (Escherichia coli DL7) [µM]	MIC (Bacillus subtilis PS832)	MIC [1] [µM]	MIC [2] [µM]	MIC [3] [µM]	MIC [4] [µM]	MIC [5] [µM]	MIC [6] [µM]	MIC (Escherichia coli ML-35) [µM]	MIC [7] [µM]	MIC (Escherichia coli D21) [µM]	MIC (Bacillus megaterium Bm11) [µM]	MIC [8] [µM]	MIC (Escherichia coli HB101) [µM]	MIC [9] [µM]
CC(C)C[C@H](NC(=O)[C@H](CCCCN)NC(=O)[C@H](C)NC(=O)[C@H](CC(C)C)NC(=O)[C@H](CCCCN)NC(=O)[C@H](CCCCN)NC(=O)[C@H](C)NC(=O)[C@H](CC(C)C)NC(=O)[C@H](CCCCN)NC(=O)[C@H](C)NC(=O)[C@H](CC(C)C)NC(=O)[C@H](CCCCN)NC(=O)[C@H](Cc1cnc[nH]1)NC(=O)[C@H](C)NC(=O)[C@@H](N)CC(=O)O)C(=O)N[C@@H](C)C(=O)N[C@@H](CCCCN)C(N)=O [DAHKLAKLAKKLAKLAK]	0.25 (≈ 0.462 µg/mL)	0.25 µM and 0.5 µM	4 (≈ 7.39 µg/mL)	≥ 32	–	–	–	–	–	–	–	–	–	–	–
CC(C)C[C@H](NC(=O)[C@H](CCCCN)NC(=O)[C@H](C)NC(=O)[C@H](CC(C)C)NC(=O)[C@H](CCCCN)NC(=O)[C@H](CCCCN)NC(=O)[C@H](C)NC(=O)[C@H](CC(C)C)NC(=O)[C@H](CCCCN)NC(=O)[C@H](C)NC(=O)[C@H](CC(C)C)NC(=O)[C@@H](N)CCCCN)C(=O)N[C@@H](C)C(=O)N[C@@H](CCCCN)C(N)=O [KLAKLAKKLAKLAK]	1 (≈ 1.52 µg/mL)	0.5 µM and 0.25 µM	4 (≈ 6.09 µg/mL)	≥ 32	6 (≈ 9.14 µg/mL)	6 (≈ 9.14 µg/mL)	6 (≈ 9.14 µg/mL)	–	–	–	–	–	–	–	–
CC(C)C[C@H](NC(=O)[C@H](Cc1ccc(O)cc1)NC(=O)[C@@H]1CCCN1C(=O)[C@@H]1CCCN1C(=O)[C@H](CCCN=C(N)N)NC(=O)[C@@H]1CCCN1C(=O)[C@H](CC(N)=O)NC(=O)[C@H](CC(N)=O)NC(=O)[C@@H](N)CC(N)=O)C(=O)N1CCC[C@H]1C(=O)N[C@@H](CCCN=C(N)N)C(=O)N1CCC[C@H]1C(=O)N[C@@H](CCCN=C(N)N)C(=O)N1CCC[C@H]1C(=O)N1CCC[C@H]1C(=O)O [NNNPRPPYLPRPRPP]	–	–	> 64	–	–	–	–	> 64	≥ 64	≥ 64	≥ 64	≥ 64	–	–	–
CC[C@H](C)[C@H](NC(=O)[C@@H]1CCCN1C(=O)[C@H](CCCCN)NC(=O)[C@@H]1CCCN1C(=O)[C@H](CCCN=C(N)N)NC(=O)CNC(=O)[C@@H]1CCCN1C(=O)[C@H](Cc1ccccc1)NC(=O)[C@@H]1CCCN1C(=O)[C@H](CCCN=C(N)N)NC(=O)[C@@H]1CCCN1C(=O)[C@H](CCCN=C(N)N)NC(=O)CNC(=O)[C@@H]1CCCN1C(=O)[C@@H](N)CO)C(=O)N[C@@H](Cc1ccccc1)C(=O)N[C@@H](CCCN=C(N)N)C(=O)N1CCC[C@H]1C(=O)N[C@@H](CCCN=C(N)N)C(=O)O [SPGRPRPFPGRPKPIFRPR]	–	–	–	–	> 100	–	> 100	–	–	–	–	–	≥ 100	≥ 100	6.3 (≈ 14 µg/mL)
